From publication PMC9214036, “Design and Synthesis of Novel PRMT1 Inhibitors and Investigation of Their Effects on the Migration of Cancer Cell” (Frontiers in Chemistry, 2022)
Counter-ions that a name gives are not always drawn.

How the values were obtained:
[1] = target: T1, PRMT4 (Homo sapiens, UniProt Q86X55); experiment: AlphaLISA selectivity assay, PRMT4; type: biochemical; conditions: read-out: IC50 against PRMT4
T1 sequence (Q86X55 1-608): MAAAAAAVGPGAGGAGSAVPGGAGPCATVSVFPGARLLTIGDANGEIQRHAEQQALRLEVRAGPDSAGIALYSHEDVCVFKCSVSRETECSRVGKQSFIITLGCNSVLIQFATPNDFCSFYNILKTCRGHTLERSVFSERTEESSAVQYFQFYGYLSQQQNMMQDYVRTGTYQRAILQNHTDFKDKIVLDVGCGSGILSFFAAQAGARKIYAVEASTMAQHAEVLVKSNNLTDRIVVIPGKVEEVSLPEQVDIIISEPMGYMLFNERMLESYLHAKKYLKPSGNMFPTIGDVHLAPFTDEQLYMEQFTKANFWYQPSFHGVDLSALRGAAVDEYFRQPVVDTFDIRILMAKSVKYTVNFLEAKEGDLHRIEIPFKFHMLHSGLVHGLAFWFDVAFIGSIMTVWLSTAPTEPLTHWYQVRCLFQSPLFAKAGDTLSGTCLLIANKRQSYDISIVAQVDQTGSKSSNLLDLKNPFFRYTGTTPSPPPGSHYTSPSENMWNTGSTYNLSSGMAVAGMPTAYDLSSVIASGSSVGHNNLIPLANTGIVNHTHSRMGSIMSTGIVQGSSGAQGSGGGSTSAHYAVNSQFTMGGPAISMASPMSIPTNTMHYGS
Description: (§1) […]. […] Next, 5 μl of enzyme solution was transferred to the assay plate and incubated at room temperature for 15 min. Then, 5 μl of substrate solution was added to each well to start the reaction. After incubation at room temperature for 30 min (PRMT4,6) and 60 min (PRMT3,8), 15 μl of acceptor and donor bead mix solution were added to the assay plate and incubated at room temperature for 60 min with subdued light. The signal was collected with Envision or EnSpire with Alpha mode. The data were analyzed in GraphPad Prism 5 to obtain IC50 values.

[2] = target: PRMT1 (Homo sapiens, UniProt Q99873); experiment: Radioactive PRMT1 methylation inhibition assay ([3H]-SAM, biotinylated histone H4 peptide); type: biochemical
Description: A series of 2,5-substituted furan and 2,4-substituted thiazole derivatives were synthesized and screened for their inhibitory effects on PRMT1 by using the radioactive PRMT1 methylation inhibition assay, which measured the amount of methyl groups that transferred from [^3H]-SAM to a biotinylated histone H4 peptide [ac-[…](Biotin)] (Tables 1–3).
The enzyme inhibitory activities and selectivity were measured by the radioisotope assay and AlphaLISA assay in ShangHai Chempartner Co., Ltd., according to the standard protocol. […] After 250 nL of compound solutions were added to the assay plate, 15 μl of PRMT1 enzyme solution or ×1 assay buffer for negative control was transferred to each well of prepared compound stock plates and the whole system (the final concentration of PRMT1 was 0.5 nM or 2 nM in the system) was incubated for 15 min at room temperature. […] Afterward, the reaction was stopped with the addition of 5 μl cold SAM solution to each well. Then, 25 μl volume per well was transferred to a Flashplate from the assay plate and incubated for a minimum of 1 h at room temperature. Finally, the Flashplate was washed with dH2O and 0.1% Tween-20 three times and then the reading plate in Microbeta using the program ^3H-Flashplate. The data were analyzed in GraphPad Prism 5 to obtain IC50 values.

[3] = system: MLEC; experiment: MLEC cell viability (CCK-8) under the luciferase assay condition; type: cell-based, mink; conditions: concentration up to 100 μM, same condition as luciferase assay
Description: (§2) Cells were seeded into a 96-well plate; after 12 h of attachment, the cells were treated with different concentrations (0–1,600 μΜ) of WCJ-394 for 48 h. Cell viability was assessed by a Cell Counting Kit-8 (CCK-8; MCE) according to the manufacturer’s instructions. Briefly, after treatment, the CCK-8 solution was added to the culture medium and incubated at 37°C for 1 h. Cell viability was assessed by measuring the absorbance at 450 nm. In the subsequent luciferase assays, the effects of WCJ-394 on the cell viability were examined in parallel to exclude the compound-induced cell death.
The luciferase activity was measured in a luminometer.

[4] = target: PRMT3 (Homo sapiens, UniProt O60678); experiment: AlphaLISA selectivity assay, PRMT3; type: biochemical; conditions: read-out: IC50 against PRMT3
Description: as §1

[5] = target: PRMT8 (Homo sapiens, UniProt Q9NR22); experiment: AlphaLISA selectivity assay, PRMT8; type: biochemical; conditions: read-out: IC50 against PRMT8
Description: as §1

[6] = system: A549 cells; experiment: Western blot of PRMT-related proteins (SDMA, ADMA, DDAH, PRMT1) in A549 cells; type: cell-based, human; conditions: WCJ-394 5, 10, 20 μM, 48 h
Description: (§3) A549 cells in the logarithmic growth phase were seeded into a 6-well cell culture plate at a density of 3 × 10^5 cells per well.
(§4) A549 cells were lysed in RIPA buffer, which contains protease and phosphatase inhibitors, and then harvested in Eppendorf tubes for centrifugation (14,000 rpm for 10 min at 4°C) to remove cell debris. The supernatants were transferred into new Eppendorf tubes, and the protein concentration was quantified with a BCA kit (Thermo Fisher). The protein samples were separated by 10% SDS-PAGE and transferred onto polyvinylidene difluoride (PVDF) membranes. The membranes were blocked for 1 h at room temperature in 5% BSA and then incubated with the corresponding primary antibodies overnight at 4°C and then incubated with secondary antibodies for another 1 h at room temperature. After being washed with TBST buffer three times, the PVDF membranes were visualized with ECL reagents (Millipore) and the Western blot results were further analyzed by ImageJ software (National Institutes of Health).

[7] = system: TGF-β signaling; experiment: cells; conditions: 18 h, read-out: IC50, inhibition of TGF-β signaling
Description: The medium was changed into DMEM with 0.1% FBS. […] The final concentration of DMSO should be maintained at 0.1%. After incubation, the medium was removed and the cells were rinsed with PBS to remove any residual compound. One hundred microliters of the Steady-Glo® Luciferase Assay reagent (Promega) was added to each well, and the cells were lysed in the dark for 10 min on a horizontal shaker. The luciferase activity was measured in a luminometer.

[8] = system: A549 cells; experiment: CCK-8 cell viability assay in A549 cells; type: cell-based, human; conditions: concentrations of 0–50 μM
Description: (§5) To determine the effects of WCJ-394 on the inhibition of TGF-β1-induced epithelial–mesenchymal transition (EMT) in A549 cells, the characterized proteins were detected using the Western blotting assay.
as §2

[9] = CCK-8 cell viability assay in A549 cells; type: cell-based, human; conditions: human, A549 cells treated for 48 h, read-out: IC50 (CC50), A549 cell viability
Description: as §5, §2

[10] = system: A549 cells; experiment: Scratch wound healing assay, TGF-β1-induced A549 cell migration; type: cell-based, human
Description: In the scratch wound healing assay, the percentages of scratch widths at 24 and 48 h compared to that of 0 h were used to denote the rate of A549 cell migration. As shown in Figures 6A–C, the TGF-β1 treatment promoted the scratched wound closure.
The monolayer cell was scratched with a new 10 μl pipette tip across the center of the well, and the detached cells were gently rinsed with PBS buffer. […] The scratch was photographed through a microscope at ×100 magnification at 0, 24, and 48 h. Then, the scratch width was quantified by ImageJ software and the rate of wound closure was calculated with the final values expressed as a migration percentage of the scratch width relative to 0 h.

[11] = target: PRMT6 (Homo sapiens, UniProt Q96LA8); experiment: AlphaLISA selectivity assay, PRMT6; type: biochemical; conditions: read-out: IC50 against PRMT6
Description: as §1

[12] = system: A549 cells; experiment: Western blot of TGF-β1-induced mesenchymal markers (EMT) in A549 cells; type: cell-based, human; conditions: TGF-β1 48 h, WCJ-394 pretreatment 5, 10, 20 μM
Description: as §3, §4

[13] = system: A549 cells; experiment: Transwell migration assay, TGF-β1-induced A549 cell migration; type: cell-based, human; conditions: TGF-β1, WCJ-394 pretreatment 5, 10, 20 μM
Description: A549 cells in the logarithmic growth phase were resuspended with a serum-free DMEM medium and seeded into the 8-μm transwell filter inserts at a density of 8 × 10^3 cells per well; meanwhile, 600 μl medium containing 10% FBS was added into the lower chambers of the 24-well cell culture plate. […] After incubation, the cells in the upper chambers were carefully removed with a cotton swab, while the cells that had traversed to the bottom side of the membrane were fixed with 4% paraformaldehyde for 15 min and stained with 0.1% crystal violet for 20 min. The chambers were washed with PBS buffer to remove extra crystal violet. Three fields of view were randomly taken and photographed from the central and surrounding parts of each membrane under a microscope at ×100 magnification, and cell number was calculated by ImageJ software.

Sequence of PRMT1 (Q99873 whole entry): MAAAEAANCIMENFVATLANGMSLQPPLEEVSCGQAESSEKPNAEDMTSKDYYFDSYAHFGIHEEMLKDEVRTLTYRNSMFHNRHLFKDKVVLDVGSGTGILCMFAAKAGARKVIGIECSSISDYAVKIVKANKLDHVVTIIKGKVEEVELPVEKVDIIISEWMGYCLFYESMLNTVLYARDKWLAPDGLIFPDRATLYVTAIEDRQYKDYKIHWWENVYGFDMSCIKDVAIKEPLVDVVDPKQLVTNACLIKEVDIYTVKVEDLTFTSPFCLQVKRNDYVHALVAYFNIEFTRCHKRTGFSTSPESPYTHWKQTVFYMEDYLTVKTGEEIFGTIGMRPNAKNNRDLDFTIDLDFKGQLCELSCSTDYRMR
Sequence of PRMT6 (Q96LA8 whole entry): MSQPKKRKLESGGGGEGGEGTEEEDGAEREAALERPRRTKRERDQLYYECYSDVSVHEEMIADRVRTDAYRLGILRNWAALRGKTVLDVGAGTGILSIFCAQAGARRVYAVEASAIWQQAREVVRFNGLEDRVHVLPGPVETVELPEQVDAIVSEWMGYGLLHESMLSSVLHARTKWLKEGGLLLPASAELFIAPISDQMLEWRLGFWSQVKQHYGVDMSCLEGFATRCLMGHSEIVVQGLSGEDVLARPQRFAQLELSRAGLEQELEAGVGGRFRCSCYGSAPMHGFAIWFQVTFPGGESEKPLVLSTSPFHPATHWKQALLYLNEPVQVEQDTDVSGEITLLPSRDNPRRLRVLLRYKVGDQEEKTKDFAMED
Sequence of PRMT8 (Q9NR22 whole entry): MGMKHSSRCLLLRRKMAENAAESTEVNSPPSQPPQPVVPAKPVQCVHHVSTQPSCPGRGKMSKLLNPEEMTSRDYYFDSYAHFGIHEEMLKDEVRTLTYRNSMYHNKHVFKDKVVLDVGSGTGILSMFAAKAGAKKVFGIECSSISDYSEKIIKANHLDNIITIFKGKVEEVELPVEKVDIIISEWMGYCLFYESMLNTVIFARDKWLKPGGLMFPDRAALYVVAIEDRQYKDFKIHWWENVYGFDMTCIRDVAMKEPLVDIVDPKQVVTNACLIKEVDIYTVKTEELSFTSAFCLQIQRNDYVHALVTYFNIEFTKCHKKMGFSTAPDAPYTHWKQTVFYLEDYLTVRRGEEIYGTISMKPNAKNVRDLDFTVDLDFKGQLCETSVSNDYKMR
Sequence of PRMT3 (O60678 whole entry): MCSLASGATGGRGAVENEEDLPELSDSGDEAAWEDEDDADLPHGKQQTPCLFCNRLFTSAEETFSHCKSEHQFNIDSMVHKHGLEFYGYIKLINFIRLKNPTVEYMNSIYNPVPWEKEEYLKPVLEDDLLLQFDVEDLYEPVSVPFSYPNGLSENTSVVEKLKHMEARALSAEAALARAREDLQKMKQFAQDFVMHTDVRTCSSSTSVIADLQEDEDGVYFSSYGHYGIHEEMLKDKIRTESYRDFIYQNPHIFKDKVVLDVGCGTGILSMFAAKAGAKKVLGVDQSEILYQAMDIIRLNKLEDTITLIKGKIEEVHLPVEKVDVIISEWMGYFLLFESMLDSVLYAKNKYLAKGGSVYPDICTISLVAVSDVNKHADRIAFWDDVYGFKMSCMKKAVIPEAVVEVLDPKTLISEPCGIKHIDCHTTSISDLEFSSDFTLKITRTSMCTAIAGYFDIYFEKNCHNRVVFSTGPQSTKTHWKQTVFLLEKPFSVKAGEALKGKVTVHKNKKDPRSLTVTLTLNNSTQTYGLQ

Q: Which results are given for `CN(CCN)Cc1csc(-c2ccc(C(=N)N)nc2)n1` [Compound 1r, N′-[2-(2-Aminocarboximido-5-pyridyl)thiazol-4-yl-methyl]-N′-methylethylenediamine Hydrochloride]?
A: IC50 [1]: 1.64 ± 0.17 µM; PRMT1 IC50 compared with SAH ([2]; fold weaker than SAH): about two times weaker than SAH; IC50 ([2]; radioactive methylation assay, read-out: IC50 (μM) against PRMT1): 1.21 ± 0.11 µM; inhibition at 10 µM ([2]; read-out: % Inhibition of PRMT1 (at 10 μM)): 98.5 ± 0.04%; cytotoxicity in MLEC (cell viability) [3]: without showing significant cytotoxicity; IC50 [4]: 57.6 ± 0.62 µM; IC50 [5]: 5.71 ± 0.05 µM; expression level of ADMA [6]: significantly reduced in a concentration-dependent manner; expression of DDAH [6]: significantly decreased in a concentration-dependent manner; expression of PRMT1 [6]: not significantly affected; expression of SDMA [6]: not affected; IC50 [7]: 17.7 µM; cytotoxicity in A549 cells [8]: did not result in any cytotoxicity; IC50 at 48 h [9]: 584 µM; TGF-β1-induced cell migration (scratched wound closure) at 24 h ([10]; WCJ-394 pretreatment at 10 or 20 μM, 24 h): significantly inhibited; TGF-β1-induced cell migration (scratched wound closure) at 48 h ([10]; WCJ-394 pretreatment, 48 h): retardation effect of WCJ-394 on cell migration was further detected; IC50 [11]: 29.7 ± 2.03 µM; expression of EMT-related proteins (fibronectin, N-cadherin, MMP-2, α-SMA) [12]: decreased (p < 0.05) by the pretreatment of WCJ-394 in a concentration-dependent manner; number of migrated cells (transwell) [13]: significantly decreased the number of migrated cells in a concentration-dependent manner
